How the values were obtained:
[1] = test system: orthotopic U87 model of GBM; assay: In vivo efficacy in orthotopic U87 GBM model; conditions: nude athymic mice, intracranial U87; three doses at 1 and 5 mg/kg IP from day 10
Experimental: FIG. 2—In vivo efficacy of WP1244 in orthotopic U87 GBM model. Eighteen nude athymic mice were implanted intracranially with 0.5 mln U87 GBM cells. Animals were randomized into three experimental groups (n=6). The treatment was initiated on day 10 and consisted of three doses ow WP1244 at 1 and 5 mg/kg given IP.

[2] = Solubility in water and 5% dextrose at room temperature; format: physicochemical
Experimental: To improve solubility and develop IV injectable formulation, different salts of WP1244 were prepared.

[3] = CNS uptake of WP1244; conditions: in vivo
[4] = test system: glioblastoma multiforme (GBM) cell lines; assay: In vitro cytotoxicity in glioblastoma multiforme (GBM) cell lines; format: cell-based
Excerpt: (§1) FIG. 3—In vitro efficacy of WP1874 in ependymoma, normal kidney, glioblastoma, and medulloblastoma cell lines.

[5] = test system: ependymoma cell lines; assay: In vitro cytotoxicity in ependymoma cell lines; format: cell-based
Excerpt: as §1

With `COc1cccc2c1C(=O)c1c(O)c3c(c(O)c1C2=O)C[C@](O)(C(C)=O)C[C@H]3OC1CC(NCc2ccc(NC(=O)c3cc(NC(=O)c4cc(NC(=O)c5ccccn5)cn4C)cn3C)cc2)C(O)C(C)O1` (stereo partly shown) [WP1244] the “In vivo activity in orthotopic U87 GBM model” value [1] was “demonstrated in vivo activity”, the “Solubility in 5% Dextrose” value ([2]; 5% dextrose, room temperature) was “Lower than 0.25 mg/mL” and the “Solubility (in words)” value ([2]; salt forms compared for IV injectable formulation) was “poor solubility”. The “Solubility in H2O” value ([2]; water, room temperature) was “Lower than 0.25 mg/mL”, the CNS uptake [3] was “especially high CNS uptake” and the Cytotoxicity [4] was “picomolar to low nanomolar”. For the same compound, the Cytotoxicity [5] was “picomolar to low nanomolar”.
